Assay results reported in PubChem BioAssay AID1963986 (Molecular Pharmacology Branch, DTP, NCI, 2024).

Tested on: 171881-019-R-J1-PDC tumor spheroid viability
Assay: Anticancer human tumor 171881-019-R-J1-PDC patient-derived invasive breast carcinoma cell line growth inhibition [PI3K]
Conditions: spheroids with HUVEC and MSC; for IC50: curve of first compound; for viability, T/C: stronger effect = lower value
In short: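 Viability of mixed-cell spheroids was determined after exposure to pairwise combinations, one partner being inavolisib, alpelisib, duvelisib or copanlisib. Highest tested concentration matched clinical Cmax where known and 10 microM where not, descending in half-log steps.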

[1] = second compound 0.0316 µM, first compound 0.0316 µM
[2] = second compound 0.0316 µM, first compound 0.1 µM
[3] = second compound 0.1 µM, first compound 0.0316 µM
[4] = second compound 0.1 µM, first compound 0.1 µM
[5] = second compound 0.316 µM, first compound 0.0316 µM
[6] = second compound 0.316 µM, first compound 0.1 µM
[7] = second compound 1 µM, first compound 0.0316 µM
[8] = second compound 1 µM, first compound 0.1 µM
[9] = second compound 3.16 µM, first compound 0.0316 µM
[10] = second compound 3.16 µM, first compound 0.1 µM
[11] = second compound 10 µM, first compound 0.0316 µM
[12] = second compound 10 µM, first compound 0.1 µM
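Note: spheroids exposed to compound for 7 days before viability read.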
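Throughout, for viability, T/C: 100% = DMSO vehicle-treated spheroids.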

Q: Which results are given for CC(C)n1nc(-c2ccc3oc(N)nc3c2)c2c(N)ncnc21 + CC(Nc1ncnc2nc[nH]c12)c1cc2cccc(Cl)c2c(=O)n1-c1ccccc1?
A: IC50 (second compound 0.0316 µM): 12.4 nM; IC50 (second compound 0.1 µM): 9.88 nM; IC50 (second compound 0.316 µM): 10.3 nM; IC50 (second compound 1 µM): 8.02 nM; IC50 (second compound 3.16 µM): 4.14 nM; IC50 (second compound 10 µM): 1.21 nM; viability, T/C (second compound 0.0316 µM, first compound 0.000316 µM): 89.7%; viability, T/C (second compound 0.0316 µM, first compound 0.001 µM): 75.7%; viability, T/C (second compound 0.0316 µM, first compound 0.00316 µM): 86.5%; viability, T/C (second compound 0.0316 µM, first compound 0.01 µM): 53.3%; viability, T/C [1]: 22.7%; viability, T/C [2]: 3.39%; viability, T/C (second compound 0.1 µM, first compound 0.000316 µM): 89.8%; viability, T/C (second compound 0.1 µM, first compound 0.001 µM): 90.5%; viability, T/C (second compound 0.1 µM, first compound 0.00316 µM): 71.8%; viability, T/C (second compound 0.1 µM, first compound 0.01 µM): 51.1%; viability, T/C [3]: 21%; viability, T/C [4]: 4.54%; viability, T/C (second compound 0.316 µM, first compound 0.000316 µM): 96.2%; viability, T/C (second compound 0.316 µM, first compound 0.001 µM): 94.3%; viability, T/C (second compound 0.316 µM, first compound 0.00316 µM): 78.2%; viability, T/C (second compound 0.316 µM, first compound 0.01 µM): 50.7%; viability, T/C [5]: 20.4%; viability, T/C [6]: 3.31%; viability, T/C (second compound 1 µM, first compound 0.000316 µM): 93.1%; viability, T/C (second compound 1 µM, first compound 0.001 µM): 89.3%; viability, T/C (second compound 1 µM, first compound 0.00316 µM): 67.4%; viability, T/C (second compound 1 µM, first compound 0.01 µM): 47.3%; viability, T/C [7]: 18.5%; viability, T/C [8]: 3.26%; viability, T/C (second compound 3.16 µM, first compound 0.000316 µM): 84.5%; viability, T/C (second compound 3.16 µM, first compound 0.001 µM): 71.8%; viability, T/C (second compound 3.16 µM, first compound 0.00316 µM): 53.8%; viability, T/C (second compound 3.16 µM, first compound 0.01 µM): 37%; viability, T/C [9]: 13.3%; viability, T/C [10]: 3.36%; viability, T/C (second compound 10 µM, first compound 0.000316 µM): 55.8%; viability, T/C (second compound 10 µM, first compound 0.001 µM): 52.1%; viability, T/C (second compound 10 µM, first compound 0.00316 µM): 40%; viability, T/C (second compound 10 µM, first compound 0.01 µM): 22.2%; viability, T/C [11]: 7.46%; viability, T/C [12]: 3.13%

Q: Which IC50 (second compound 0.0316 µM) does the source give for CC1(C)CCC(CN2CCN(c3ccc(C(=O)NS(=O)(=O)c4ccc(NCC5CCOCC5)c([N+](=O)[O-])c4)c(Oc4cnc5[nH]ccc5c4)c3)CC2)=C(c2ccc(Cl)cc2)C1 + CC(Nc1ncnc2nc[nH]c12)c1cc2cccc(Cl)c2c(=O)n1-c1ccccc1 here?
A: 4130 nM

Q: And the IC50 (second compound 0.1 µM)?
A: 3980 nM

Q: And the IC50 (second compound 0.316 µM)?
A: 3970 nM

Q: What about the IC50 (second compound 1 µM) of the same compound?
A: 4010 nM

Q: And the IC50 (second compound 3.16 µM)?
A: 2590 nM

Q: And the IC50 (second compound 10 µM)?
A: 1490 nM

Q: What about the viability, T/C [1] of the same compound?
A: 88.6%

Q: And the viability, T/C [2]?
A: 80.2%

Q: And the viability, T/C (second compound 0.0316 µM, first compound 0.316 µM)?
A: 80.3%

Q: What about the viability, T/C (second compound 0.0316 µM, first compound 1 µM) of the same compound?
A: 76%

Q: What about the viability, T/C (second compound 0.0316 µM, first compound 3.16 µM) of the same compound?
A: 61.9%

Q: And the viability, T/C (second compound 0.0316 µM, first compound 10 µM)?
A: 14.3%

Q: What about the viability, T/C [3] of the same compound?
A: 89.7%

Q: What about the viability, T/C [4] of the same compound?
A: 89.9%

Q: What about the viability, T/C (second compound 0.1 µM, first compound 0.316 µM) of the same compound?
A: 74.5%

Q: And the viability, T/C (second compound 0.1 µM, first compound 1 µM)?
A: 72.6%

Q: And the viability, T/C (second compound 0.1 µM, first compound 3.16 µM)?
A: 64.1%

Q: What about the viability, T/C (second compound 0.1 µM, first compound 10 µM) of the same compound?
A: 11.7%

Q: What about the viability, T/C [5] of the same compound?
A: 90.4%

Q: What about the viability, T/C [6] of the same compound?
A: 88.2%

Q: What about the viability, T/C (second compound 0.316 µM, first compound 0.316 µM) of the same compound?
A: 81.9%

Q: What about the viability, T/C (second compound 0.316 µM, first compound 1 µM) of the same compound?
A: 97.3%

Q: And the viability, T/C (second compound 0.316 µM, first compound 3.16 µM)?
A: 59.2%

Q: And the viability, T/C (second compound 0.316 µM, first compound 10 µM)?
A: 12.4%

Q: What about the viability, T/C [7] of the same compound?
A: 92.1%

Q: What about the viability, T/C [8] of the same compound?
A: 88.3%

Q: And the viability, T/C (second compound 1 µM, first compound 0.316 µM)?
A: 81.4%

Q: And the viability, T/C (second compound 1 µM, first compound 1 µM)?
A: 84.8%

Q: And the viability, T/C (second compound 1 µM, first compound 3.16 µM)?
A: 59.9%

Q: What about the viability, T/C (second compound 1 µM, first compound 10 µM) of the same compound?
A: 10.8%

Q: What about the viability, T/C [9] of the same compound?
A: 84.5%

Q: What about the viability, T/C [10] of the same compound?
A: 87.9%

Q: And the viability, T/C (second compound 3.16 µM, first compound 0.316 µM)?
A: 85%

Q: What about the viability, T/C (second compound 3.16 µM, first compound 1 µM) of the same compound?
A: 75.7%

Q: What about the viability, T/C (second compound 3.16 µM, first compound 3.16 µM) of the same compound?
A: 44.6%

Q: What about the viability, T/C (second compound 3.16 µM, first compound 10 µM) of the same compound?
A: 11.4%

Q: What about the viability, T/C [11] of the same compound?
A: 64.5%

Q: What about the viability, T/C [12] of the same compound?
A: 55.9%

Q: What about the viability, T/C (second compound 10 µM, first compound 0.316 µM) of the same compound?
A: 57%

Q: What about the viability, T/C (second compound 10 µM, first compound 1 µM) of the same compound?
A: 57%

Q: What about the viability, T/C (second compound 10 µM, first compound 3.16 µM) of the same compound?
A: 37.7%

Q: What about the viability, T/C (second compound 10 µM, first compound 10 µM) of the same compound?
A: 9.06%
